Marks after values point to notes of the source that are not given here.
Assays:
[1] = test system: D-AMPH-induced hyperactivity; assay: Inhibition of D-amphetamine-induced hyperactivity; format: in vivo; settings: rats, p.o.; D-AMPH 1 mg/kg i.p.; distance traveled over 2 h
Protocol: Male Sprague–Dawley rats (200–250 g, N=4/treatment group) were habituated to Lucite locomotor activity chambers comprising an AccuScan activity monitoring system (AccuScan Instruments, Inc., Columbus, OH) were maintained in a quiet observation room kept under low light conditions. […] The rats were briefly removed from the activity chambers 60 min later to receive an injection of D-amphetamine hydrochloride (D-AMPH; 1 mg/kg in 1 ml/kg, i.p.). The animals were returned to the activity chambers, and locomotor activity was then recorded for 2 h using system software. Activity was quantitated as distance traveled (cm) over 2 h for each group. Inhibitory activity was calculated as the percent of total activity observed at each dose level of each drug versus animals receiving D-AMPH alone. An ID50 for inhibition of D-AMPH-induced hyperactivity was calculated for each compound.

[2] = test system: serine 40 (S40)-phosphorylated tyrosine hydroxylase; assay: Striatal tyrosine hydroxylase S40 phosphorylation state (CNSProfile immunoblotting); format: in vivo; settings: mice, acute; ITI-007 3 mg/kg p.o., clozapine 5 i.p., aripiprazole 10 p.o., olanzapine 1 i.p., risperidone 3 p.o., haloperidol 1 i.p.; over 60 min; vs vehicle
Protocol: The effect of the selected compounds on the phosphorylation state of tyrosine hydroxylase (TH) was measured and quantitated as an indicator of the potential of each compound to perturb presynaptic dopamine synthesis in striatum. […] This technique preserves in vivo levels of brain protein phosphorylation ([Zhu et al. 2010]). […] Small aliquots of the homogenate were retained for protein determination by the bicinchoninic acid (BCA) protein assay method (Pierce Chemical Co., Rockford, IL). […] Immunoblotting was carried out using a phos-phorylation state-specific polyclonal antibody raised against […] (S40)-phosphorylated tyrosine hydroxylase (Chemicon, Temecula, CA) and a pan-TH monoclonal antibody for measuring the total protein levels (BD Biosciences, San Jose, CA). […] Antibody binding was detected and quantitated using a LiCor Odyssey infrared fluorescent detection system. Phosphorylation at each site detected by phospho-specific antibodies was quantified, normalized to total levels of the protein (non-phosphorylated), and expressed as percent±SEM of the level of phosphorylation in vehicle-treated control mice (N=6).

[3] = test system: striatal dopamine metabolism; assay: Striatal dopamine metabolism (HPLC-EC of DA, DOPAC, HVA); format: in vivo, mice; settings: for DOPAC/DA, chronic (21 day) dosing, mean / HVA/DA, chronic (21 day) dosing, mean: striatum 2 h after last dose; for DOPAC/DA, acute (2 h) dosing, mean / HVA/DA, acute (2 h) dosing, mean: striatum 2 h after dose
Protocol: Measurements of tissue dopamine levels were performed at CDC-NIOSH. […] Striatum was rapidly dissected from each mouse brain, weighed, and placed into Eppendorf tubes that were frozen in liquid nitrogen and stored at -80 °C. […] Tissues were homogenized in 100 μl of ice-cold 0.2 M perchloric acid containing 1 μM dihydroxybenzylamine (DHBA) as an internal standard and centrifuged at 10,000×g for 10 min at 4 °C. The supernatant was filtered through a 0.2 μm nitrocellulose membrane, and an aliquot (10 μl) was injected from a temperature-controlled (4 °C) automatic sample injector (Waters 717plus Autosampler) connected to a Waters 515 HPLC pump. Catecholamines were separated on a C18 reverse-phase column ([…]; Waters […] 25 cm×4.6 mm; 5 μm), electrochemically detected (Waters 464 Pulsed Electrochemical Detector; range 10 nA, potential +0.7 V), and analyzed using Millennium software. […] A flow rate of 1 ml/min was used. […] The recovery of each analyte was adjusted with respect to the internal standard and quantified from a standard curve. The levels of dopamine and its metabolites, DOPAC and HVA, were calculated from the AUC values for each (based on microgram per gram (μg/g) tissue wet weight) and expressed as a percent of the saline control.

extracellular dopamine = assay: In vivo microdialysis of dopamine and DOPAC in striatum and prefrontal cortex; settings: rats
Protocol: On the day of the experiment (24–48 h after surgery), the microdialysis probes of each animal were connected via the use of flexible PEEK tubing to a microperfusion pump (Harvard Apparatus, PHD 2000 Holliston, MA). Artificial CSF, composed of 147 mM NaCl, 3 mM KCl, 1.2 mM CaCl2, and 1.2 mM MgCl2 was used to perfuse the probes (1.5 μl/min) beginning at 75 min prior to drug treatment. Baseline dialysate collection was begun for all rats 60 min prior to drug administration (t=−60 min) such that a total of […] were collected prior to drug treatment (t=0). […] A control group of rats (N=9) received only the 0.5 % methylcellulose vehicle solution, delivered orally (p.o.). All drug solutions were delivered in a volume of 1 ml/kg of body weight. Every 20 min for the following 3 h, dialysate was collected from both brain regions of each rat. Dialysates were collected into mini-vials containing 7.5 μl of 0.02 M formic acid using an automated fraction collector Univentor 820, Malta. Tubes containing dialysate samples were then frozen at −80 °C until analyzed by HPLC for levels of dopamine and the dopamine metabolite, DOPAC. […] Coronal sections were prepared of each rat brain to verify the position of the dialysis collection probes. Dopamine and DOPAC concentrations were determined in each sample using HPLC separation and electrochemical detection. An aliquot (20 μl) of each dialysate sample was injected onto the HPLC column by means of a refrigerated microsampler system, consisting of a syringe pump (Gilson, model 402), a multi-column injector (Gilson, model 233 XL), and a temperature regulator (Gilson, model 832). The chromatographic separation was performed on a reverse-phase 150 ×2.1 mm (3 μm) C18 Thermo BDS Hypersil column (Keystone Scientific). […] The mobile phase was run at a flow rate of 0.35 ml/min using an HPLC pump (Shimadzu, model LC-10AD vp). Dopamine and DOPAC were electrochemically detected using a potentiostat (Antec Leyden, model Intro) fitted with a glassy carbon electrode set a +500 mV versus Ag/AgCl (Antec, Leyden). Data were analyzed using Chromatography Data System software (Shimadzu, Class-VP, Japan) using an external standard method to quantify concentrations of dopamine and DOPAC. […] Drug effects were expressed as percentages of basal level (mean±SEM) within the same subject. Statistical analysis was performed using Sigmastat for Windows (SPSS Corporation). Drug effects were compared with baseline and vehicle control using a two-way ANOVA for repeated measurements followed by the Newman–Keuls post hoc test. […] For all tests, the level of statistical significance was set at p<0.05.

[4] = test system: GluN2B phosphorylated at tyrosine (Y) 1472; assay: GluN2B Y1472 phosphorylation state in nucleus accumbens; format: in vivo; settings: mice, 1 mg/kg p.o., 120 min after administration
Protocol: Brains were rapidly removed from the skull. […] Brain tissue was prepared for SDS-PAGE as described above, and protein homogenates (15 μg) were separated on 3-7 % gradient gels, and proteins transferred to nitrocellulose membranes. Portions of each membrane were immunoblotted for GluN2B phosphorylated at […] (rabbit polyclonal) and total GluN2B (mouse monoclonal) (Thermo Fisher Scientific, Rockford, IL).

forelimb catalepsy = assay: Forelimb catalepsy, bar grip test; settings: mice, 3 mg/kg p.o.; each time point (120-360 min); vs vehicle
Protocol: Forelimb catalepsy was measured using the bar grip test. Mice were placed in a Lucite mouse cage outfitted with a 3-mm diameter wooden rod suspended 4 cm from the floor of the cage. During testing, the mouse was allowed to grip the bar firmly with hind legs placed firmly on the floor of the cage. The mouse was required to maintain this posture for at least 10 s for a valid test session. Catalepsy was then quantitated by recording the latency (in seconds) to step both front paws down to the floor of the cage up to a maximum time of 120 s. If the mouse stepped off the bar immediately (less than 10 s), another attempt was made up to a maximum of ten attempts. The longest duration of immobility was recorded if none of the ten attempts were beyond 10 s. Catalepsy was measured for each mouse at 2, 3, 4, and 6 h after drug administration. Mean forelimb catalepsy time (in seconds) was calculated across each group and time point. Data were analyzed using ANOVA with Newman–Keuls post hoc test.

[5] = 3 mg/kg p.o. once daily 21 days
[6] = 30 mg/kg p.o. once daily 21 days
[7] = 1 mg/kg p.o. once daily 21 days
[8] = 10 mg/kg p.o. once daily 21 days

SMILES | Effect on TH phosphorylation at S40 in striatum [2] | ID50, inhibition of D-AMPH-induced hyperactivity [1] [mg/kg] | DOPAC/DA, chronic (21 day) dosing, mean [3, 5] | HVA/DA, chronic (21 day) dosing, mean [3, 5] | DOPAC/DA, acute (2 h) dosing, mean ([3]; 3 mg/kg p.o. once) | HVA/DA, acute (2 h) dosing, mean ([3]; 3 mg/kg p.o. once) | DOPAC/DA, chronic (21 day) dosing, mean [3, 7] | HVA/DA, chronic (21 day) dosing, mean [3, 7] | DOPAC/DA, acute (2 h) dosing, mean ([3]; 1 mg/kg p.o. once) | HVA/DA, acute (2 h) dosing, mean ([3]; 1 mg/kg p.o. once) | further results
Cc1cc2c(s1)Nc1ccccc1N=C2N1CCN(C)CC1 [Olanzapine] | significantly increase | – | – | – | – | – | – | – | – | – | –
Cc1nc2n(c(=O)c1CCN1CCC(c3noc4cc(F)ccc34)CC1)CCCC2 [Risperidone] | significantly increase | 0.33 | – | – | – | – | 16.35 ^*, ^**, ^*** | 29.37 ^*, ^**, ^*** | 14.35 ^*, ^**, ^*** | 30.71 ^*, ^**, ^*** | DOPAC/DA, chronic (21 day) dosing, mean [3, 8]: 25.12 ^*, ^**, ^***; HVA/DA, chronic (21 day) dosing, mean [3, 8]: 36.39 ^*, ^**, ^***; DOPAC/DA, acute (2 h) dosing, mean ([3]; 10 mg/kg p.o. once): 30.98 ^*, ^**, ^***; HVA/DA, acute (2 h) dosing, mean ([3]; 10 mg/kg p.o. once): 23.06 ^*, ^**, ^***

Continued, in another order:

Effect on TH phosphorylation at S40 in striatum [2] | SMILES | ID50, inhibition of D-AMPH-induced hyperactivity [1] [mg/kg] | DOPAC/DA, chronic (21 day) dosing, mean [3, 5] | HVA/DA, chronic (21 day) dosing, mean [3, 5] | DOPAC/DA, acute (2 h) dosing, mean ([3]; 3 mg/kg p.o. once) | HVA/DA, acute (2 h) dosing, mean ([3]; 3 mg/kg p.o. once) | DOPAC/DA, chronic (21 day) dosing, mean [3, 7] | HVA/DA, chronic (21 day) dosing, mean [3, 7] | DOPAC/DA, acute (2 h) dosing, mean ([3]; 1 mg/kg p.o. once) | HVA/DA, acute (2 h) dosing, mean ([3]; 1 mg/kg p.o. once) | further results
did not significantly affect | O=C1CCc2ccc(OCCCCN3CCN(c4cccc(Cl)c4Cl)CC3)cc2N1 [Aripiprazole] | 4.65 | 8.27 ^*, ^** | 12.14 ^* | 8.57 | 12.63 | – | – | – | – | DOPAC/DA, chronic (21 day) dosing, mean [3, 6]: 7.25 ^*, ^**; HVA/DA, chronic (21 day) dosing, mean [3, 6]: 12.32 ^*; DOPAC/DA, acute (2 h) dosing, mean ([3]; 30 mg/kg p.o. once): 11.89; HVA/DA, acute (2 h) dosing, mean ([3]; 30 mg/kg p.o. once): 11.20; DA or DOPAC efflux in striatum or mPFC (extracellular dopamine; 30 mg/kg p.o.): did not significantly affect
did not significantly affect | CN1CCN(C2=Nc3cc(Cl)ccc3Nc3ccccc32)CC1 [Clozapine] | – | – | – | – | – | – | – | – | – | –
significantly increase | O=C(CCCN1CCC(O)(c2ccc(Cl)cc2)CC1)c1ccc(F)cc1 [Haloperidol] | 0.04 | 17.00 ^*, ^**, ^*** | 24.15 ^*, ^**, ^*** | 22.68 ^*, ^**, ^*** | 28.14 ^*, ^**, ^*** | 18.26 ^*, ^**, ^*** | 29.23 ^*, ^**, ^*** | 19.69 ^*, ^**, ^*** | 31.04 ^*, ^**, ^*** | DA and DOPAC efflux in striatum (extracellular dopamine; 0.3 mg/kg s.c., p<0.001 vs vehicle): significant increase; DA and DOPAC levels in mPFC (extracellular dopamine; 0.3 mg/kg s.c., p<0.01 (DA), p<0.001 (DOPAC) vs vehicle): elevated; GluN2B phosphorylation at Y1472 in nucleus accumbens [4]: 177±28 % of control; Forelimb catalepsy, bar grip test (forelimb catalepsy): profound forelimb catalepsy

From PMC4302236, “Functional profile of a novel modulator of serotonin, dopamine, and glutamate neurotransmission” (Psychopharmacology, 2014)
